Columns and labels:
large (Lg) crabgrass [1] = assay: Test A preemergence; type: in vivo, Digitaria sanguinalis; conditions: Digitaria sanguinalis, pre-emergence, 240 h
Outline: (§1)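 Visual injury scored 0–100 (100 = complete control) against untreated controls about 10 days after treatment in a greenhouse. Test chemicals, formulated with surfactant in non-phytotoxic solvent, were sprayed on soil preemergence or on 2-10 cm, one- to two-leaf plants postemergence.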

giant foxtail [2] = assay: Test A preemergence; type: in vivo, Setaria faberii; conditions: Setaria faberi, pre-emergence, 240 h
Outline: as §1

morningglory [3] = assay: Test A preemergence; type: in vivo, Ipomoea spp.
Outline: as §1

wheat = assay: Test A preemergence; type: in vivo, Triticum aestivum
Outline: as §1

large (Lg) crabgrass [4] = assay: Test A postemergence; type: in vivo, Digitaria sanguinalis; conditions: Digitaria sanguinalis, post-emergence, 240 h
Outline: as §1

giant foxtail [5] = assay: Test A postemergence; type: in vivo, Setaria faberii; conditions: Setaria faberi, post-emergence, 240 h, 0 to 100 scale where 0 is no effect and 100 is complete control, read-out: Plant response rating, Foxtail, Giant
Outline: as §1

velvetleaf = assay: Test A postemergence; type: in vivo, Abutilon theophrasti; conditions: Abutilon theophrasti, post-emergence, 240 h, 0 to 100 scale where 0 is no effect and 100 is complete control, read-out: Plant response rating, Velvetleaf
Outline: as §1

corn = assay: Test A postemergence; type: in vivo, Zea mays; conditions: Zea mays, post-emergence, 240 h
Outline: as §1

rice = assay: Test B flooded paddy test; type: in vivo, Oryza sativa; conditions: Oryza sativa; Flood, 250 g ai/ha; 0 to 100 scale where 0 is no effect and 100 is complete control; read-out: Plant response rating, Rice
Outline: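 Greenhouse flooded-pot test: compounds dosed into 3 cm standing water over 2-leaf plants, flood held constant. Rated visually after 13–15 days on 0–100 (complete control = 100); a dash marks no test result.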

Italian ryegrass = assay: Test C postemergence; type: in vivo, Lolium multiflorum; conditions: Lolium multiflorum, post-emergence
Outline: (§2)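 Sown in loam/sand → sprayed pre-emergence; or grown to 1–4 leaves in peat mix → sprayed post-emergence. Same solvent/surfactant formulation both ways. Greenhouse 13–15 d. Score 0–100 visual.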

morningglory [6] = assay: Test C postemergence; type: in vivo, Ipomoea coccinea; conditions: Ipomoea, post-emergence
Outline: as §2

yellow nutsedge = assay: Test C postemergence; type: in vivo, Cyperus esculentus; conditions: Cyperus, post-emergence
Outline: as §2

pigweed = assay: Test C postemergence; type: in vivo, Amaranthus retroflexus; conditions: Amaranthus retroflexus, post-emergence
Outline: as §2

kochia = assay: Test C postemergence; type: in vivo, Kochia scoparia; conditions: Bassia scoparia, post-emergence
Outline: as §2

wild oat = assay: Test C postemergence; type: in vivo, Avena fatua; conditions: Avena fatua, post-emergence
Outline: as §2

[7] = 125 g ai/ha, 0 to 100 scale where 0 is no effect and 100 is complete control, read-out: Plant response rating, Crabgrass, Large
[8] = 125 g ai/ha, 0 to 100 scale where 0 is no effect and 100 is complete control

Which results are given for `N#Cc1cccc(Oc2ncc(F)cn2)c1-n1cc(C(F)(F)F)cn1` [Compound 79, 3-[(5-fluoro-2-pyrimidinyl)oxy]-2-[4-(trifluoromethyl)-1H-pyrazol-1-yl]benzonitrile]?
pest or weed control at 125 g/ha (large (Lg) crabgrass [1]; [7]): 100%; pest or weed control at 500 g/ha (large (Lg) crabgrass [1]; 500 g ai/ha, 0 to 100 scale, 0 no effect, 100 complete control, approx. 10 days, read-out: Crabgrass, Large plant response rating): 100%; pest or weed control at 125 g/ha (giant foxtail [2]; 125 g ai/ha, 0 to 100 scale where 0 is no effect and 100 is complete control, read-out: Plant response rating, Foxtail, Giant): 100%; pest or weed control at 500 g/ha (giant foxtail [2]; 500 g ai/ha, 0 to 100 scale, 0 no effect, 100 complete control, approx. 10 days, read-out: Foxtail, Giant plant response rating): 100%; Plant response rating, Morningglory (morningglory [3]; [8]): 100; pest or weed control at 500 g/ha (morningglory [3]; Ipomoea, pre-emergence, 240 h, 500 g ai/ha, 0 to 100 scale, 0 no effect, 100 complete control, approx. 10 days, read-out: Morningglory plant response rating): 100%; Plant response rating, Wheat (wheat; [8]): 70; plant injury at 500 g/ha (wheat; Triticum aestivum, pre-emergence, 240 h, 500 g ai/ha, 0 to 100 scale, 0 no effect, 100 complete control, approx. 10 days, read-out: Wheat plant response rating): 100%; pest or weed control at 125 g/ha (large (Lg) crabgrass [4]; [7]): 100%; pest or weed control at 500 g/ha (large (Lg) crabgrass [4]; 500 g ai/ha, 0 to 100 scale, 0 no effect, 100 complete control, read-out: Plant response rating Crabgrass, Large): 100%; pest or weed control at 125 g/ha (giant foxtail [5]; 125 g ai/ha): 100%; pest or weed control at 500 g/ha (giant foxtail [5]; 500 g ai/ha): 100%; pest or weed control at 125 g/ha (velvetleaf; 125 g ai/ha): 100%; pest or weed control at 500 g/ha (velvetleaf; 500 g ai/ha): 100%; Corn plant response rating (crop injury, 0 = no effect, 100 = complete kill) at 125 g/ha (corn; [8]): 80%; plant injury at 500 g/ha (corn; 500 g ai/ha, 0 to 100 scale, 0 no effect, 100 complete control, read-out: Plant response rating Corn): 100%; plant injury at 250 g/ha (rice): 45%; pest or weed control at 125 g/ha (Italian ryegrass; 125 g ai/ha, postemergence, read-out: Plant response rating (0 to 100), Ryegrass, Italian): 20%; pest or weed control at 250 g/ha (Italian ryegrass; 250 g ai/ha, postemergence, read-out: Plant response rating (0 to 100), Ryegrass, Italian): 20%; pest or weed control at 31 g/ha (Italian ryegrass; Postemergence, 31 g ai/ha, scale 0 to 100 (0 no effect, 100 complete control), 13 to 15 days, read-out: Plant response rating, Ryegrass, Italian): 5%; pest or weed control at 62 g/ha (Italian ryegrass; Postemergence, 62 g ai/ha, scale 0 to 100 (0 no effect, 100 complete control), read-out: Plant response rating, Ryegrass, Italian): 10%; pest or weed control at 125 g/ha (morningglory [6]; 125 g ai/ha, postemergence, read-out: Plant response rating (0 to 100), Morningglory): 95%; pest or weed control at 250 g/ha (morningglory [6]; 250 g ai/ha, postemergence, read-out: Plant response rating (0 to 100), Morningglory): 98%; pest or weed control at 31 g/ha (morningglory [6]; Postemergence, 31 g ai/ha, scale 0 to 100 (0 no effect, 100 complete control), 13 to 15 days, read-out: Plant response rating, Morningglory): 70%; pest or weed control at 62 g/ha (morningglory [6]; Postemergence, 62 g ai/ha, scale 0 to 100 (0 no effect, 100 complete control), read-out: Plant response rating, Morningglory): 95%; pest or weed control at 125 g/ha (yellow nutsedge; 125 g ai/ha, postemergence, read-out: Plant response rating (0 to 100), Nutsedge, Yellow): 5%; pest or weed control at 250 g/ha (yellow nutsedge; 250 g ai/ha, postemergence, read-out: Plant response rating (0 to 100), Nutsedge, Yellow): 25%; pest or weed control at 31 g/ha (yellow nutsedge; Postemergence, 31 g ai/ha, scale 0 to 100 (0 no effect, 100 complete control), 13 to 15 days, read-out: Plant response rating, Nutsedge, Yellow): 5%; pest or weed control at 62 g/ha (yellow nutsedge; Postemergence, 62 g ai/ha, scale 0 to 100 (0 no effect, 100 complete control), read-out: Plant response rating, Nutsedge, Yellow): 5%; pest or weed control at 125 g/ha (pigweed; 125 g ai/ha, postemergence, read-out: Plant response rating (0 to 100), Pigweed): 95%; pest or weed control at 250 g/ha (pigweed; 250 g ai/ha, postemergence, read-out: Plant response rating (0 to 100), Pigweed): 98%; pest or weed control at 31 g/ha (pigweed; Postemergence, 31 g ai/ha, scale 0 to 100 (0 no effect, 100 complete control), 13 to 15 days, read-out: Plant response rating, Pigweed): 75%; pest or weed control at 62 g/ha (pigweed; Postemergence, 62 g ai/ha, scale 0 to 100 (0 no effect, 100 complete control), read-out: Plant response rating, Pigweed): 95%; pest or weed control at 125 g/ha (kochia; 125 g ai/ha, postemergence, read-out: Plant response rating (0 to 100), Kochia): 95%; pest or weed control at 250 g/ha (kochia; 250 g ai/ha, postemergence, read-out: Plant response rating (0 to 100), Kochia): 95%; pest or weed control at 31 g/ha (kochia; Postemergence, 31 g ai/ha, scale 0 to 100 (0 no effect, 100 complete control), 13 to 15 days, read-out: Plant response rating, Kochia): 90%; pest or weed control at 62 g/ha (kochia; Postemergence, 62 g ai/ha, scale 0 to 100 (0 no effect, 100 complete control), read-out: Plant response rating, Kochia): 90%; pest or weed control at 125 g/ha (wild oat; 125 g ai/ha, postemergence, read-out: Plant response rating (0 to 100), Oat, Wild): 20%; pest or weed control at 250 g/ha (wild oat; 250 g ai/ha, postemergence, read-out: Plant response rating (0 to 100), Oat, Wild): 50%; pest or weed control at 31 g/ha (wild oat; Postemergence, 31 g ai/ha, scale 0 to 100 (0 no effect, 100 complete control), 13 to 15 days, read-out: Plant response rating, Oat, Wild): 10%; pest or weed control at 62 g/ha (wild oat; Postemergence, 62 g ai/ha, scale 0 to 100 (0 no effect, 100 complete control), read-out: Plant response rating, Oat, Wild): 15%

— patent US9695155B2, “Herbicidal substituted pyrimidinyloxy benzene compounds” (E. I. DU PONT DE NEMOURS AND COMPANY, priority 2013, dated 2017)
